Measurements reported in PMC4467398, “Preclinical antitumor activity of ST7612AA1: a new oral thiol-based histone deacetylase (HDAC) inhibitor” (Oncotarget, 2014).

What was measured:
Colon cancer HCT116 = experiment: In vitro proliferation assay (sulphorodamine B); type: cell-based; details: Homo sapiens, HCT-116, 72 h, mean ± S.E.M.
HCT116 tumor xenografts = experiment: Western blot of tumor xenografts after oral ST7612AA1; type: in vivo, nude mice; details: xenografts collected 24 h after the last oral administration; 80 mg/10 mL/kg qdx5/wx3w
Protocol: In order to assess the in vivo effect of ST7612AA1 on the acetylation degree of α-tubulin and histones, and on the expression of other key proteins, HCT116 tumor xenografts (3 samples/group) were excised at different times after the last treatment, and then total protein lysates were prepared through the homogenization of tumor samples in lysis buffer containing 0.5% NP-40, supplemented with 10 μg/mL of protease inhibitor cocktail (Sigma Chemical Co., St. Louis, MO, USA). Determination of the protein concentration and Western Blotting analysis were finally performed as above described for the in vitro experiments. The antibodies used are listed in Supplementary Table 2.

[1] = tested on: DOHH2 and TMD8 DLBCL cells; experiment: Gene Set Enrichment Analysis (GSEA) of gene expression profiles, ST7612AA1 300 nM 8 hrs; type: cell-based, human
[2] = PK sampling and analysis after a single oral dose of ST7612AA1 (plasma, LC-MS/MS); type: in vivo, CD1 mice; details: single oral dose of 120 mg/kg; limit of quantification 25 ng/mL
Protocol: CD1 nude mice were used. Male mice were treated with a single dose of ST7612AA1 at 120 mg/10 mL/kg p.o., using 5% Solutol HS 15 in water for injection as vehicle. Blood samples were collected at 0.25, 0.5, 1, 2, 4 and 6 h post treatment from 5 animals per time point. Levels of ST7612AA1 and ST7464AA1 were determined in plasma by quantitative LC-MS/MS having a limit of quantification of 25 ng/mL. The PK parameters Cmax (maximum plasma concentration), Tmax (time of maximum plasma concentration), Clast (last quantifiable concentration), Tlast (time of last quantifiable plasma concentration), AUClast (area under the concentration vs time curve from 0 to Tlast), AUCINF (area under the concentration vs time curve from 0 to infinity), T1/2 (terminal half-life), CL/F (apparent systemic clearance) and Vz/F (apparent terminal volume of distribution) were derived from the analyte plasma concentration vs time data according to a model independent approach for sparse data sampling by using Phoenix WinNonlin® ver. 6.3 software (Pharsight, Cetara).

[3] = C2.CP.CGP, down-regulated genes
[4] = C2.CP.KEGG, down-regulated genes
[5] = C2.CP.REACTOME, down-regulated genes
[6] = GSEA.C2.CP.BIOCARTA, up-regulated genes
[7] = GSEA.C2.CP.CGP, up-regulated genes
[8] = GSEA.C2.CP.KEGG, up-regulated genes
[9] = GSEA.C2.CP.REACTOME, up-regulated genes
[10] = GSEA.C3.TFT, in both sheets (down- and up-regulated)
[11] = SignatureDB, down-regulated genes
[12] = SignatureDB, up-regulated genes

CC(=O)SCCCCC[C@H](NC(=O)[C@H]1CCC(=O)N1)C(=O)Nc1ccccc1 [ST7612AA1]
IC50 (Colon cancer HCT116): 75 ± 10 nM | HSP70 levels (HCT116 tumor xenografts): significant increase | HSP90 protein levels (HCT116 tumor xenografts): dramatic decrease | acetylated α-tubulin levels (HCT116 tumor xenografts): increased levels | pan H3 acetylation (HCT116 tumor xenografts): strong induction | NES GARY_CD5_TARGETS_DN [1, 3]: -2.075 | NES HELLER_HDAC_TARGETS_DN [1, 3]: -2.119 | NES MANALO_HYPOXIA_DN [1, 3]: -2.295 | NES PEART_HDAC_PROLIFERATION_CLUSTER_DN [1, 3]: -2.218 | NES PENG_GLUTAMINE_DEPRIVATION_DN [1, 3]: -2.059 | NES SCHLOSSER_MYC_TARGETS_AND_SERUM_RESPONSE_DN [1, 3]: -2.302 | NES SCHLOSSER_MYC_TARGETS_AND_SERUM_RESPONSE_UP [1, 3]: -2.093 | NES SCHLOSSER_MYC_TARGETS_REPRESSED_BY_SERUM [1, 3]: -2.287 | NES SCHUHMACHER_MYC_TARGETS_UP [1, 3]: -2.188 | NES ZHONG_RESPONSE_TO_AZACITIDINE_AND_TSA_DN [1, 3]: -2.061 | NES KEGG_AMINOACYL_TRNA_BIOSYNTHESIS [1, 4]: -2 | NES KEGG_BASE_EXCISION_REPAIR [1, 4]: -1.385 | NES KEGG_CELL_CYCLE [1, 4]: -1.433 | NES KEGG_N_GLYCAN_BIOSYNTHESIS [1, 4]: -1.4288 | NES KEGG_ONE_CARBON_POOL_BY_FOLATE [1, 4]: -1.545 | NES KEGG_PROTEASOME [1, 4]: -1.717 | NES KEGG_PYRIMIDINE_METABOLISM [1, 4]: -1.58 | NES KEGG_RENIN_ANGIOTENSIN_SYSTEM [1, 4]: -1.474 | NES KEGG_RNA_DEGRADATION [1, 4]: -1.656 | NES KEGG_SPLICEOSOME [1, 4]: -1.947 | NES REACTOME_ASSEMBLY_OF_THE_PRE_REPLICATIVE_COMPLEX [1, 5]: -1.875 | NES REACTOME_DEADENYLATION_DEPENDENT_MRNA_DECAY [1, 5]: -1.915 | NES REACTOME_METABOLISM_OF_NON_CODING_RNA [1, 5]: -2.068 | NES REACTOME_METABOLISM_OF_RNA [1, 5]: -1.941 | NES REACTOME_MITOCHONDRIAL_PROTEIN_IMPORT [1, 5]: -1.944 | NES REACTOME_MRNA_PROCESSING [1, 5]: -1.945 | NES REACTOME_MRNA_SPLICING [1, 5]: -2.002 | NES REACTOME_PROCESSING_OF_CAPPED_INTRON_CONTAINING_PRE_MRNA [1, 5]: -2.059 | NES REACTOME_REGULATION_OF_MITOTIC_CELL_CYCLE [1, 5]: -1.812 | NES REACTOME_TRNA_AMINOACYLATION [1, 5]: -1.958 | NES BIOCARTA_ARAP_PATHWAY [1, 6]: 1.7296 | NES BIOCARTA_CCR5_PATHWAY [1, 6]: 1.628 | NES BIOCARTA_COMP_PATHWAY [1, 6]: 1.713 | NES BERTUCCI_MEDULLARY_VS_DUCTAL_BREAST_CANCER_DN [1, 7]: 2.239 | NES CHEN_LVAD_SUPPORT_OF_FAILING_HEART_UP [1, 7]: 2.236 | NES DUTERTRE_ESTRADIOL_RESPONSE_24HR_DN [1, 7]: 2.118 | NES GALINDO_IMMUNE_RESPONSE_TO_ENTEROTOXIN [1, 7]: 2.132 | NES GAUSSMANN_MLL_AF4_FUSION_TARGETS_E_UP [1, 7]: 2.11 | NES HELLER_HDAC_TARGETS_SILENCED_BY_METHYLATION_UP [1, 7]: 2.6813 | NES HELLER_HDAC_TARGETS_UP [1, 7]: 2.622 | NES KINSEY_TARGETS_OF_EWSR1_FLII_FUSION_DN [1, 7]: 2.138 | NES PEART_HDAC_PROLIFERATION_CLUSTER_UP [1, 7]: 2.166 | NES ZHONG_RESPONSE_TO_AZACITIDINE_AND_TSA_UP [1, 7]: 2.29 | NES KEGG_ASTHMA [1, 8]: 1.8598 | NES KEGG_AXON_GUIDANCE [1, 8]: 1.813 | NES KEGG_CELL_ADHESION_MOLECULES_CAMS [1, 8]: 1.93 | NES KEGG_ENDOCYTOSIS [1, 8]: 1.748 | NES KEGG_EPITHELIAL_CELL_SIGNALING_IN_HELICOBACTER_PYLORI_INFECTION [1, 8]: 1.747 | NES KEGG_FOCAL_ADHESION [1, 8]: 1.8042 | NES KEGG_LEUKOCYTE_TRANSENDOTHELIAL_MIGRATION [1, 8]: 1.726 | NES KEGG_LYSOSOME [1, 8]: 1.886 | NES KEGG_SYSTEMIC_LUPUS_ERYTHEMATOSUS [1, 8]: 2.269 | NES KEGG_VIBRIO_CHOLERAE_INFECTION [1, 8]: 1.733 | NES REACTOME_AMYLOIDS [1, 9]: 2.248 | NES REACTOME_CELL_CELL_JUNCTION_ORGANIZATION [1, 9]: 1.864 | NES REACTOME_DEPOSITION_OF_NEW_CENPA_CONTAINING_NUCLEOSOMES_AT_THE_CENTROMERE [1, 9]: 1.861 | NES REACTOME_MEIOSIS [1, 9]: 1.9137 | NES REACTOME_MEIOTIC_RECOMBINATION [1, 9]: 2.082 | NES REACTOME_MEIOTIC_SYNAPSIS [1, 9]: 1.86 | NES REACTOME_PACKAGING_OF_TELOMERE_ENDS [1, 9]: 2.135 | NES REACTOME_RNA_POL_I_PROMOTER_OPENING [1, 9]: 2.137 | NES REACTOME_RNA_POL_I_TRANSCRIPTION [1, 9]: 1.892 | NES REACTOME_TELOMERE_MAINTENANCE [1, 9]: 1.906 | NES TTTNNANAGCYR_UNKNOWN [1, 10]: 1.939 | NES V$CEBP_Q2 [1, 10]: 1.715 | NES V$CEBP_Q2_01 [1, 10]: 1.7492 | NES V$CREBP1_01 [1, 10]: 1.784 | NES V$E4BP4_01 [1, 10]: 1.766 | NES V$GATA_Q6 [1, 10]: 1.724 | NES V$HLF_01 [1, 10]: 1.724 | NES V$MYOGENIN_Q6 [1, 10]: 1.714 | NES V$OCT1_B [1, 10]: 1.782 | NES […]_UNKNOWN [1, 10]: 2.04 | NES CSR_EARLY_UP.V1_UP ([1]; GSEA.C6, down-regulated genes): -1.379 | NES EIF4E_UP ([1]; GSEA.C6, down-regulated genes): -1.468 | NES ERB2_UP.V1_DN ([1]; GSEA.C6, down-regulated genes): -1.443 | NES ESC_J1_UP_LATE.V1_DN ([1]; GSEA.C6, down-regulated genes): -1.204 | NES GCNP_SHH_UP_EARLY.V1_UP ([1]; GSEA.C6, down-regulated genes): -1.491 | NES GCNP_SHH_UP_LATE.V1_UP ([1]; GSEA.C6, down-regulated genes): -1.454 | NES MEK_UP.V1_DN ([1]; GSEA.C6, down-regulated genes): -1.169 | NES MYC_UP.V1_UP ([1]; GSEA.C6, down-regulated genes): -2.19 | NES VEGF_A_UP.V1_DN ([1]; GSEA.C6, down-regulated genes): -1.363 | NES BCAT.100_UP.V1_UP ([1]; GSEA.C6, up-regulated genes): 1.912 | NES CAHOY_NEURONAL ([1]; GSEA.C6, up-regulated genes): 1.833 | NES E2F3_UP.V1_UP ([1]; GSEA.C6, up-regulated genes): 1.833 | NES ERB2_UP.V1_UP ([1]; GSEA.C6, up-regulated genes): 2.065 | NES ESC_V6.5_UP_LATE.V1_UP ([1]; GSEA.C6, up-regulated genes): 1.857 | NES MEK_UP.V1_UP ([1]; GSEA.C6, up-regulated genes): 2.011 | NES P53_DN.V1_UP ([1]; GSEA.C6, up-regulated genes): 1.814 | NES RAF_UP.V1_UP ([1]; GSEA.C6, up-regulated genes): 1.891 | NES STK33_SKM_UP ([1]; GSEA.C6, up-regulated genes): 1.998 | NES STK33_UP ([1]; GSEA.C6, up-regulated genes): 1.832 | NES BLOOD_MODULE-3.7_UNDETERMINED [1, 11]: -2.014 | NES GLUTAMINE_STARVE_DOWN [1, 11]: -2.082 | NES HIF1ALPHA_1.5X_DOWN [1, 11]: -2.057 | NES MYC_CHIP_PET_EXPR_UP [1, 11]: -2.152 | NES MYC_OVEREXPRESSION_1.5X_UP [1, 11]: -2.439 | NES MYC_OVEREXPRESSION_2X_UP [1, 11]: -2.047 | NES MYELOMA_TACI_LOW_PLASMABLAST_GENE [1, 11]: -1.944 | NES NOTCH_T-ALL_UP_PALOMERO [1, 11]: -2.039 | NES PROLIFERATION_NODE1640 [1, 11]: -2.024 | NES RAPAMYCIN_BJAB_DOWN [1, 11]: -1.887 | NES BLOOD_MODULE-1.2_PLATELETS [1, 12]: 0.6607 | NES BLOOD_MODULE-3.2_INFLAMMATION-1 [1, 12]: 0.6587 | NES CNS_PNS_NODE1663 [1, 12]: 0.6849 | NES HIF1ALPHA_1.5X_UP [1, 12]: 0.6544 | NES HRAS_OVEREXPRESSION_4X_UP [1, 12]: 0.6606 | NES JAK2_DOWNREGULATED_PMBL [1, 12]: 0.6252 | NES KRAS_UP [1, 12]: 0.6774 | NES NORMAL_MESENCHYMAL-1_NODE1643 [1, 12]: 0.6887 | NES RETICULOCYTE_LARGE [1, 12]: 0.7092 | NES SERUM_RESPONSE_FB_DOWN [1, 12]: 0.6176 | ST7612AA1 in plasma after oral administration [2]: not detected
